The data set can be described thus: Decrease in BHT content on a stent due to each manufacturing step (FIG. 1). Format: physicochemical. Conditions: for reduction of the amount of BHT present in the drug reservoir layer: everolimus/BHT Xience V stent. From the text:
FIG. 1 is a graph showing the decrease in BHT content on a stent due to each step in the manufacturing process in which a macrocyclic triene lactone and BHT are present.
For example, with regard to the above-mentioned Xience V stent, the process steps for coating the stent include spray coating a drug reservoir layer solution comprising everolimus and BHT onto a stent, which includes a primer layer, then drying the coated stent at an elevated temperature, mounting the stent on a delivery catheter and, finally, sterilizing the mounted stent/catheter. […] FIG. 1 relates to a stent comprising everolimus as the macrocyclic triene lactone and BHT as the antioxidant stabilizer but it is understood that similar if not identical results would be observed if a different macrocyclic triene lactone were used with BHT. Likewise it is expected that similar results would be obtained in terms of the magnitude of the effect at each step of a different antioxidant stabilizer were used.
Calculation of the proper amount of BHT to include with everolimus on a stent to arrive at a finished catheter/stent product that has the desired amount of residual BHT, i.e., about 0.001% to about 0.01% w/w based on the weight of everolimus on the stent, can be accomplished in two ways. At one extreme is stoichiometric reduction in the amount of BHT on the stent as the fabrication steps progress. In this approach, the amount of BHT drops by a constant amount at each fabrication step independent of the starting amount of BHT present. At the other extreme is a percentage drop where amount of the BHT decreases by the same percentage in each fabrication step, likewise independent of starting amount of BHT. Table 1 exemplifies these extremes compared to the known loss of BHT using the current […] stent and everolimus, which contains 0.20% (w/w) of BHT based on the weight of everolimus.
Thus, the fabrication process shown in FIG. 1 affords a drop in the amount of BHT from 0.2% in the starting material down to approximately 0.044% in the finished product. To achieve a final amount of BHT that is between the presently preferred […] and 0.01%, assuming the same proportional decrease in the amount of BHT, a starting amount in the coating solvent would be about 0.0455% (w/w) or less. On the other hand, assuming the same absolute decrease in the amount of BHT present in the finished product (stoichiometric loss), would require something less than about 0.166% (w/w) BHT in the coating solvent. Of course, a BHT reduction process that is neither stoichiometric nor proportional is possible, in which case the starting amount of BHT on the stent would be between the two extremes. It is clear, however, that beginning with about 0.0166% (w/w) BHT based on everolimus would in all instances result in a finished product have less that 0.01% (w/w) of BHT, an amount that would for all intents and purposes result in an insignificant exposure of a patient to the antioxidant.

On to `Cc1cc(C(C)(C)C)c(O)c(C(C)(C)C)c1` [BHT, butylated hydroxytoluene], for which the “reduction of the amount of BHT present in the drug reservoir layer” value (shortened to “reduction of the amount of BHT present”) (catheter mounting step) was “about 1%”, the “reduction of the amount of BHT present” value (drying step at elevated temperature) is “about 9%”, the “reduction of the amount of BHT present” value (ethylene oxide sterilization step) is recorded as “about 64%” and the “reduction of the amount of BHT present” value (spray coating step) was “about 61%”. Moreover, the “% Antioxidant (w/w, based on everolimus) in finished product” value (current XV process, 0.20% BHT initially provided in everolimus) is recorded as “approximately 0.044 % (w/w, based on everolimus)”. Moreover, the “additional reduction of BHT” value (follow-up ethylene oxide sterilization on the already sterilized catheter/stent) amounted to 30%.

For the origin of these results see patent US20140255451A1, “Implantable Medical Device Comprising A Macrocyclic Triene Lactone Drug And Minimal Antioxidant Stabilizer And Method Of Fabrication” (ABBOTT CARDIOVASCULAR SYSTEMS INC., priority 2013, published 2014).
